In US20080051365A1, “Treatment of Inflammation” (CAN-FITE BIOPHARMA LTD., priority 2004, published 2008):

Legend:
[1] = cited from earlier work
[2] = tested on: Adjuvant induced Arthritis (AIA) rats; experiment: Adjuvant induced arthritis (AIA) in rats, arthritis clinical score; assay type: in vivo, rat; settings: female Lewis rats, CF101 10 μg/kg orally twice daily from day 14, MTX 0.25 or 0.75 mg/kg intraperitoneally every 3 days from day 14, versus vehicle
Description: Female Lewis rats, aged 8-12 weeks were obtained from Harlan Laboratories (Jerusalem, Israel). Rats were maintained on a standardized pelleted diet and supplied with tap water. Experiments were performed in accordance with the guidelines established by the Institutional Animal Care and Use Committee at Can-Fite BioPharma, Petah Tikva, Israel. The rats were injected subcutaneously (SC) at the tail base with 100 μl of suspension composed of incomplete Freund's adjuvant (IFA) with 10 mg/ml heat killed Mycobacterium tuberculosis, (Mt) H37Ra, (Difco, Detroit, USA). Each group contained 10 animals.
Treatment with CF101 (10 μg/kg) was initiated on day 14 after vaccination and was orally administered by gavage, twice daily. Another group was treated with Methotrexate (MTX) (0.25, 0.75 mg/kg) intraperitoneally every 3 days, starting on day 14th after vaccination. The control group in each experiment received vehicle only (DMSO in a dilution corresponding to that of the drugs).
Clinical Disease Activity Score was assessed as follows: the animals were inspected every second day for clinical arthritis. […] The clinical score was calculated by adding the four individual legs' score. The inflammatory intensity was also determined in accordance with the increase in the rat hind paw's diameter, measured by caliper (Mitotoyo, Tokyo, Japan).

[3] = oral CF101, healthy young men; cited from earlier work

| SMILES | half life in mice [1] [h] | disease severity evaluated by the arthritis clinical score [2] | half life in human plasma [3] [h] |
| --- | --- | --- | --- |
| CNC(=O)[C@H]1OC(n2cnc3c(NCc4cccc(I)c4)ncnc32)[C@H](O)[C@@H]1O (stereo partly drawn) [CF101, 1-deoxy-1-[6-[[(3-iodophenyl)methyl]amino]-9H-purine-9-yl]-N-methyl-D-ribofuranuronamide] | 1.5 | significant decrease in disease severity | 8 to 10 |
| CN(Cc1cnc2nc(N)nc(N)c2n1)c1ccc(C(=O)N[C@@H](CCC(=O)O)C(=O)O)cc1 [MTX, Methotrexate, reference compound] |  | significant decrease in disease severity |  |
